Measurements reported in patent publication US20230331691A1, “TREPROSTINIL DERIVATIVE COMPOUNDS AND METHODS OF USING SAME” (CORSAIR PHARMA, INC., priority 2013, published 2023).

Experiments:
Type in all cases: in vitro ADME
[1] = Human plasma stability assay (Test 2); conditions: heparinated human plasma, 0.5 uM test compound, 37° C., up to 120 minutes; read-out: Test 2 T½
Procedure: (Test 2) Human plasma stability assay was conducted by incubating 0.5 uM test compounds at 37° C. for up to 120 minutes in heparinated human plasma. At 0, 5, 15, 30, 60 and 120 […] min., an aliquot was taken, quenched with internal standard containing stop solution. After incubation, the samples were analyzed by LC-MS/MS. Peak area ratios of analyte to internal standard were used to calculate the half-life. Formation of the active drug Compound A over the time course was also monitored by LC-MS/MS analysis.

[2] = Human liver microsomal stability assay (Test 1); conditions: human liver microsomes, 0.5 uM test compound, 37° C., up to 45 minutes, pH 7.4, NADPH generating system; read-out: Test 1 T½
Procedure: (§1) (Test 1) Human liver microsomal stability assay was conducted by incubating 0.5 uM test compounds at 37° C. for up to 45 minutes in 50 mM of potassium phosphate buffer (pH 7.4) containing 0.5 mg of microsomal protein and 50 µL of NADPH generating system (7.8 mg of glucose 6-phosphate, 1.7 mg of NADPH and 6 U of glucose 6-phosphate dehydrogenase per mL in 2% w/v of sodium bicarbonate). At 0, 5, 15, 30 and 45 min., an aliquot was taken, quenched with internal standard containing stop solution. No co-factor controls at 45 minutes were also prepared. After incubation, the samples were analyzed by LC-MS/MS. Peak area ratios of analyte to internal standard were used to calculate the intrinsic clearance. The intrinsic clearance (CLint) was determined from the first order elimination constant by non-linear regression. Formation of the active drug Compound A over the time course was also monitored by LC-MS/MS analysis.

[3] = Human skin homogenate stability assay (Test 3); conditions: 0.5 uM test compound, 37° C., up to 45 minutes, pH 7.4, NADPH generating system, read-out: Test 3 T½
Procedure: as §1, with “3)” for “1)”, “skin homogenate” for “liver microsomal”, “conducted in a similar way as the human liver microsomal stability assay,” for “conducted”, “human skin homogenate” for “microsomal”

Row | Structure (SMILES) | half-life at 0.5 uM [1] [min] | half-life at 0.5 uM [2] [min] | half-life at 0.5 uM [3] [min]
1 | CCCCC[C@H](O)CC[C@@H]1[C@H]2Cc3cccc(OCC(=O)OCC4CC4)c3C[C@H]2C[C@H]1O [Compound 1, [2-Hydroxy-1-(3-hydroxy-octyl)-2,3,3a,4,9,9a-hexahydro-1H-cyclopenta[b]naphthalen-5-yloxy]-acetic acid cyclopropylmethyl ester] | < 15 | < 15 | 
2 | CCCCC[C@H](O)CC[C@@H]1[C@H]2Cc3cccc(OCC(=O)OC)c3C[C@H]2C[C@H]1OC(C)=O [Compound 26, [2-Acetoxy-1-(3-hydroxy-octyl)-2,3,3a,4,9,9a-hexahydro-1H-cyclopenta[b]naphthalen-5-yloxy]-acetic acid methyl ester] | 15 to 30 | < 15 | 15 to 30
3 | CCCCCCCCOC(=O)COc1cccc2c1C[C@H]1C[C@@H](O)[C@H](CC[C@@H](O)CCCCC)[C@H]1C2 [Compound 64] | > 60 | < 15 | > 60
4 | CCCCC[C@H](O)CC[C@@H]1[C@H]2Cc3cccc(OCC(=O)OC(C)(C)C)c3C[C@H]2C[C@H]1O [Compound 28, [2-Hydroxy-1-(3-hydroxy-octyl)-2,3,3a,4,9,9a-hexahydro-1H-cyclopenta[b]naphthalen-5-yloxy]-acetic acid tert-butyl ester] | 15 to 30 | < 15 | 
5 | CCCCC[C@H](O)CC[C@@H]1[C@H]2Cc3cccc(OCC(=O)NCC(F)(F)C(F)(F)F)c3C[C@H]2C[C@H]1O [Compound 21, 2-[2-Hydroxy-1-(3-hydroxy-octyl)-2,3,3a,4,9,9a-hexahydro-1 H-cyclopenta[b]naphthalen-5-yloxy]-N-(2,2,3,3,3-pentafluoro-propyl)-acetamide] | > 60 | < 15 | 
6 | CCCCC[C@H](O)CC[C@@H]1[C@H]2Cc3cccc(OCC(=O)OC)c3C[C@H]2C[C@H]1O [Compound 15, [2-Hydroxy-1-(3-hydroxy-octyl)-2,3,3a,4,9,9a-hexahydro-1H-cyclopenta[b]naphthalen-5-yloxy]-acetic acid methyl ester] | < 15 | < 15 | < 15
7 | CCCCC[C@H](O)CC[C@@H]1[C@H]2Cc3cccc(OCC(=O)NCCN)c3C[C@H]2C[C@H]1O [Compound 8, N-(2-Amino-ethyl)-2-[2-hydroxy-1-(3-hydroxy-octyl)-2,3,3a,4,9,9a-hexahydro-1H-cyclopenta[b]naphthalen-5-yloxy]-acetamide] |  | 31 to 60 | 
8 | CCCCC[C@H](O)CC[C@@H]1[C@H]2Cc3cccc(OCC(=O)O[C@H](C)C(C)C)c3C[C@H]2C[C@H]1O [Compound 62] | 31 to 60 | < 15 | > 60
9 | CCCCC[C@H](O)CC[C@@H]1[C@H]2Cc3cccc(OCC(=O)OC)c3C[C@H]2C[C@H]1OC(=O)CCC(=O)OCC [Compound 27, Succinic acid ethyl ester 1-(3-hydroxy-octyl)-5-methoxycarbonylmethoxy-2,3,3a,4,9,9a-hexahydro-1H-cyclopenta[b]naphthalen-2-yl ester] | > 60 | < 15 | 
10 | CCCCC[C@H](O)CC[C@@H]1[C@H]2Cc3cccc(OCC(=O)OC(C)C)c3C[C@H]2C[C@H]1O [Compound 20, [2-Hydroxy-1-(3-hydroxy-octyl)-2,3,3a,4,9,9a-hexahydro-1H-cyclopenta[b]naphthalen-5-yloxy]-acetic acid isopropyl ester] | 31 to 60 | < 15 | < 15
11 | CCCCC[C@H](O)CC[C@@H]1[C@H]2Cc3cccc(OCC(=O)OCCOC)c3C[C@H]2C[C@H]1O [Compound 10, [2-Hydroxy-1-(3-hydroxy-octyl)-2,3,3a,4,9,9a-hexahydro-1H-cyclopenta[b]naphthalen-5-yloxy]-acetic acid 2-methoxy-ethyl ester] |  | < 15 | 
12 | CCCCC[C@H](O)CC[C@@H]1[C@H]2Cc3cccc(OCC(=O)OC)c3C[C@H]2C[C@H]1OC(=O)CC(C)C [Compound 23, 3-Methyl-butyric acid 1-(3-hydroxy-octyl)-5-methoxycarbonylmethoxy-2,3,3a,4,9,9a-hexahydro-1H-cyclopenta[b]naphthalen-2-yl ester] | > 60 | < 15 | 
13 | CCCCC[C@H](O)CC[C@@H]1[C@H]2Cc3cccc(OCC(=O)OC4CCOC4)c3C[C@H]2C[C@H]1O (stereo partly shown) [Compound 5, [2-Hydroxy-1-(3-hydroxy-octyl)-2,3,3a,4,9,9a-hexahydro-1H-cyclopenta[b]naphthalen-5-yloxy]-acetic acid tetrahydro-furan-3-yl ester] | < 15 | < 15 | 
14 | CCCCC[C@H](O)CC[C@@H]1[C@H]2Cc3cccc(OCC(=O)OC)c3C[C@H]2C[C@H]1OC(=O)C1CC1 [Compound 24, Cyclopropanecarboxylic acid 1-(3-hydroxy-octyl)-5-methoxycarbonylmethoxy-2,3,3a,4,9,9a-hexahydro-1H-cyclopenta[b]naphthalen-2-yl ester] | > 60 | < 15 | 
15 | CCCCC[C@H](O)CC[C@@H]1[C@H]2Cc3cccc(OCC(=O)O[C@H](C)C(=O)OC)c3C[C@H]2C[C@H]1O [Compound 6, 2-{2-[2-Hydroxy-1-(3-hydroxy-octyl)-2,3,3a,4,9,9a-hexahydro-1H-cyclopenta[b]naphthalen-5-yloxy]-acetoxy}-propionic acid methyl ester] | < 15 | < 15 | 
16 | CCCCC[C@H](O)CC[C@@H]1[C@H]2Cc3cccc(OCC(=O)OCCO)c3C[C@H]2C[C@H]1O [Compound 9, [2-Hydroxy-1-(3-hydroxy-octyl)-2,3,3a,4,9,9a-hexahydro-1H-cyclopenta[b]naphthalen-5-yloxy]-acetic acid 2-hydroxy-ethyl ester] |  | < 15 | 
17 | CCCCC[C@H](O)CC[C@@H]1[C@H]2Cc3cccc(OCC(=O)NCCCO)c3C[C@H]2C[C@H]1O [Compound 11, 2-[2-Hydroxy-1-(3-hydroxy-octyl)-2,3,3a,4,9,9a-hexahydro-1H-cyclopenta[b]naphthalen-5-yloxy]-N-(3-hydroxy-propyl)-acetamide] | > 60 | < 15 | 
18 | CCCCC[C@H](O)CC[C@@H]1[C@H]2Cc3cccc(OCC(=O)NCC(=O)OC)c3C[C@H]2C[C@H]1O [Compound 12, {2-[2-Hydroxy-1-(3-hydroxy-octyl)-2,3,3a,4,9,9a-hexahydro-1H-cyclopenta[b]naphthalen-5-yloxy]-acetylamino}-acetic acid methyl ester] | > 60 | < 15 | 
19 | CCCCC[C@H](O)CC[C@@H]1[C@H]2Cc3cccc(OCC(=O)OCCCF)c3C[C@H]2C[C@H]1O [Compound 4, [2-Hydroxy-1-(3-hydroxy-octyl)-2,3,3a,4,9,9a-hexahydro-1H-cyclopenta[b]naphthalen-5-yloxy]-acetic acid 3-fluoro-propyl ester] | < 15 | < 15 | 
